Assay results reported in US20170202822A1, “METHODS AND COMPOSITIONS FOR ENHANCING CANCER THERAPY” (THE SCRIPPS RESEARCH INSTITUTE, priority 2014, published 2017).

Experiments:
[1] = test system: MCF7 cells; assay: Proliferation of MCF7 cells (shCtrl vs shNAMPT) by crystal violet staining; format: cell-based, human; conditions: for restoration of tamoxifen sensitivity: ER+/NAMPT-low MCF7 cells, 1, 5 or 10 mM NAM or 1 or 5 mM NR
Method: (§1) NAMPT knockdown (shNAMPT) reduced NAMPT (A) mRNA and (B) protein expression in MCF7 and T47D cells compared to controls transduced with scrambled shRNA (shCtrl). (A) NAMPT mRNA levels were analyzed by real time PCR and are expressed relative to beta-D-glucuronidase (GUSB) (***P<0.001) (n=3). (B) NAMPT protein expression was analyzed by Western blot analysis. Quantification of NAMPT protein was related to β-tubulin expression. […] Cellular NAD was analyzed in whole cell extracts of 1×10^6 cells. Metabolite concentrations were determined using a NAD+/NADH fluorescence detection kit (Cell Technology, Inc) and normalized to protein content. (D) Proliferation of control (shCtrl) vs NAMPT-knockdown (shNAMPT) MCF7 and T47D cells, untreated or treated with 0.001, 0.05, 0.1, 1, or 5 μM 4-hydroxytamoxifen (tamoxifen active metabolite) for 14 days. Proliferation was measured based on crystal violet staining and is expressed as % of proliferation of untreated cells. Groups were compared by unpaired two-tailed Student's t-test in n=4 (***P<0.001, **P<0.01 *P<0.05).
(A) Effect of nicotinamide treatment (10 mM NAM) on proliferation of control (shCtrl) vs NAMPT-knockdown (shNAMPT) MCF7 and T47D cells exposed to 1 μM or 0.1 μM 4-hydroxytamoxifen (tamoxifen active metabolite) respectively for 14 days. Proliferation was measured based on crystal violet staining and is expressed as % of proliferation of untreated cells (no 4-hydroxytamoxifen, no NAM). Groups were compared by unpaired two-tailed Student's t-test in n=4 (***P<0.001, **P<0.01 *P<0.05). (B) NAMPT KD cells present reduced absolute levels of NAD′ and nicotinamide treatment induces NAD^+ and NADH levels in both control (CT) or NAMPT KD (shNAMPT) breast cancer cells. NAD^+ and NADH were analyzed independently in whole cell extracts of 1×10^6 cells. Metabolite concentrations were determined using a NAD^+/NADH fluorescence detection kit (Cell Technology, Inc). (C) Distribution of ERα in MCF7 shCT or shNAMPT cells, measured after 7 days of cell treatment with 10 mM nicotinamide in EMEM medium, supplemented with 10% FBS. ERα localization was detected by immunofluorescence using anti-ERα clone SP1 (Thermo Fisher). Nuclei were detected by DAPI staining. Representative images are shown.
Nicotinamide riboside (NR) was more efficient than nicotinamide in blocking low-NAMPT-induced tamoxifen resistance. Proliferation of control (shCT) vs NAMPT-knockdown (shNAMPT) MCF7 cells treated with 1 or 5 μM 4-hydroxytamoxifen (tamoxifen active metabolite) for 7 days with or without (A) 1, 5 or 10 mM nicotinamide (NAM) or (B) 1 or 5 mM nicotinamide riboside (NR). Proliferation was measured based on crystal violet staining and is expressed as % of proliferation of untreated cells (no 4-hydroxytamoxifen). Groups were compared by unpaired two-tailed Student's t-test in n=4 (***P<0.001, **P<0.01 *P<0.05).

[2] = test system: T47D cells; assay: Proliferation of T47D cells (shCtrl vs shNAMPT) by crystal violet staining; format: cell-based, human; conditions: 14 days
Method: as §1, with “(D) Proliferation of control (shCtrl) vs NAMPT-knockdown (shNAMPT) MCF7 and T47D cells, untreated or treated with 0.001, 0.05, 0.1, 1, or 5 μM 4-hydroxytamoxifen (tamoxifen active metabolite) for 14 days.” left out, “Groups were compared by unpaired two-tailed Student's t-test in n=4 (***P<0.001, **P<0.01 *P<0.05).” left out
(§2) (A) Effect of nicotinamide treatment (10 mM NAM) on proliferation of control (shCtrl) vs NAMPT-knockdown (shNAMPT) MCF7 and T47D cells exposed to 1 μM or 0.1 μM 4-hydroxytamoxifen (tamoxifen active metabolite) respectively for 14 days. Proliferation was measured based on crystal violet staining and is expressed as % of proliferation of untreated cells (no 4-hydroxytamoxifen, no NAM). […] NAD^+ and NADH were analyzed independently in whole cell extracts of 1×10^6 cells. Metabolite concentrations were determined using a NAD^+/NADH fluorescence detection kit (Cell Technology, Inc). […] Nuclei were detected by DAPI staining. […]

[3] = test system: MCF7 cells; assay: Growth of MCF7 cells in estrogen-free, phenol red-free medium, crystal violet staining; format: cell-based, human; conditions: for proliferation with 4-hydroxytamoxifen: 10 nM E2 + 1 μM 4-hydroxytamoxifen; for sensitization to tamoxifen's antiproliferative effects: 1 μM 4-hydroxytamoxifen
Method: (A) Growth of control (shCtrl) vs NAMPT knockdown (shNAMPT) MCF7 cells cultured for 7 days in EMEM medium supplemented with 10% FBS, or in phenol red-free EMEM supplemented with 10% charcoal-stripped estrogen-free FBS. Growth was measured by crystal violet staining after 7 days in culture. Groups were compared by unpaired two-tailed Student's t-test in n=3 (***P<0.001). (B) Growth of control (shCtrl) vs NAMPT knockdown (shNAMPT) MCF7 cells cultured in estrogen-free, phenol red-freeEMEM medium supplemented with 10% charcoal-stripped FBS. […] Growth was measured by crystal violet staining after 7 days in culture. Groups were compared by unpaired two-tailed Student's t-test in n=3 (*P<0.05,[…],***P<0.001). (C) Changes in NAD^+ levels impact the subcellular localization of ERα. […] Estrogen starvation and treatment were performed in phenol red-free EMEM supplemented with 10% charcoal-stripped FBS. ERα was detected by immunofluorescence using Pierce anti-ERα antibody (MA1-39539). Representative images are shown for all conditions.
To further analyze the regulatory role of NAMPT and the NAD^+ salvage pathway in estrogen-dependent growth and tamoxifen treatment, we first analyzed the capacity of MCF7 variant cells to grow in estrogen-free media. […] Importantly, low NAMPT expressing MCF7 cells (shNAMPT) had the capacity to proliferate even in the absence of estrogens (FIG. 6A). […] Furthermore, NAM treatment sensitized shCT and re-sensitized shNAMPT cells to tamoxifen's antiproliferative effects (FIG. 6B). In FIG. 4C, we analyzed the ERα localization in MCF7 cells when the cells were cultured in EMEM medium supplemented with 10% FBS, serum that contain hormones and growth factors that modulate ERα localization independently of the presence of estrogens (Muriel Le Romancer et al., Endocrine Reviews, October 2011, 32(5):597-622). In order to deeply analyze the role of NAMPT and NAM treatment on modulating ligand-dependent ERα nuclear localization, we starved the cells from any growth factor and hormones including estrogens for 72 hours by growing them in phenol red-free EMEM/10% charcoal-stripped FBS. Then, breast cancer cells were cultured for 24 hours with or without 10 nM E2, or with 10 nM E2 plus 10 mM NAM. […] In the absence of estrogens, ERα was distributed in the cytoplasm of control cells while in shNAMPT expressing cells ERα was concentrated in the nuclei.

[4] = test system: cellular NAD^+; assay: Cellular NAD+ in whole cell extracts, NAD+/NADH fluorescence detection kit; format: cell-based, human; conditions: MCF7 cells expressing basal or low NAMPT levels
Method: as §1, with “(D) Proliferation of control (shCtrl) vs NAMPT-knockdown (shNAMPT) MCF7 and T47D cells, untreated or treated with 0.001, 0.05, 0.1, 1, or 5 μM 4-hydroxytamoxifen (tamoxifen active metabolite) for 14 days.” left out, “Groups were compared by unpaired two-tailed Student's t-test in n=4 (***P<0.001, **P<0.01 *P<0.05).” left out
as §2

[5] = test system: MDA-MB-231 cells; assay: Proliferation of triple negative MDA-MB-231 cells by crystal violet staining; format: cell-based, human; conditions: 10 mM NAM, 0.5, 1 or 5 μM 4-hydroxytamoxifen, 14 days
Method: Proliferation of triple negative breast MDA-MB-231 cells, untreated or treated with 0.5, 1 or 5 μM 4-hydroxytamoxifen (tamoxifen active metabolite) for 14 days, with or without treatment with 10 mM nicotinamide (NAM). Proliferation was measured based on crystal violet staining and is expressed as % of proliferation of untreated cells (no 4-hydroxytamoxifen, no NAM). Groups were compared by unpaired two-tailed Student's t-test in n=3 (**P<0.01).

[6] = test system: ERα
[7] = 1 or 5 μM 4-hydroxytamoxifen, 7 days
[8] = MCF7 shNAMPT, 10 mM NAM, 7 days

Compound: 4-hydroxytamoxifen
- anti-proliferative efficacy of 4-hydroxytamoxifen on reduction of NAMPT expression ([1]; MCF7 shNAMPT vs shCtrl, 0.001-5 μM, 14 days): dramatically reduced the anti-proliferative efficacy
- anti-proliferative efficacy of 4-hydroxytamoxifen on reduction of NAMPT expression ([2]; T47D shNAMPT vs shCtrl, 0.001-5 μM): dramatically reduced the anti-proliferative efficacy
- proliferation with 4-hydroxytamoxifen ([3]; MCF7 shCT, 7 days): able to reduce proliferation
- proliferation with 4-hydroxytamoxifen ([3]; MCF7 shNAMPT, 7 days): not in shNAMPT

Compound: C[C@]12CC[C@@H]3c4ccc(O)cc4CC[C@H]3[C@@H]1CC[C@@H]2O [17-β-estradiol]
- proliferation with 17-β-estradiol ([3]; MCF7 shCT, 10 nM E2, 7 days, estrogen-free medium): induced proliferation

Compound: NC(=O)c1cccnc1 [NAM, nicotinamide]
- restoration of tamoxifen sensitivity [1, 7]: restore tamoxifen sensitivity
- effect of NAM on anti-proliferative efficacy of 4-hydroxytamoxifen ([1]; MCF7 shCtrl and shNAMPT, 10 mM NAM, 1 μM 4-hydroxytamoxifen, 14 days): enhanced the anti-proliferative efficacy of 4-hydroxytamoxifen
- effect of NAM on anti-proliferative efficacy of 4-hydroxytamoxifen ([2]; T47D shCtrl and shNAMPT, 10 mM NAM, 0.1 μM 4-hydroxytamoxifen): enhanced the anti-proliferative efficacy of 4-hydroxytamoxifen
- NAD+ levels after NAM treatment [4]: induced significantly NAD^+ levels
- sensitization to tamoxifen's antiproliferative effects ([3]; MCF7 shCT, 10 mM NAM, 7 days): sensitized
- estrogen-induced proliferation ([3]; MCF7 shCT, 10 mM NAM, 7 days): dramatically inhibited
- sensitization to tamoxifen's antiproliferative effects [3, 8]: re-sensitized
- estrogen-independent growth [3, 8]: dramatically inhibited
- sensitization to tamoxifen-induced antiproliferative effects [5]: sensitized MDA-MB-231 to tamoxifen-induced antiproliferative effects
- ERα nuclear localization with NAM ([6]; MCF7 control and shNAMPT, estrogen starved 72 h, 10 nM E2 plus 10 mM NAM, 24 h): inhibited ERα nuclear localization
- ERα expression and nuclear localization ([6]; MCF7 shCT or shNAMPT, 10 mM nicotinamide, 7 days, EMEM with 10% FBS): do not affect estrogen receptor alpha (ERα) expression and nuclear localization

Compound: NC(=O)c1ccc[n+]([C@@H]2O[C@H](CO)[C@@H](O)[C@H]2O)c1 [nicotinamide riboside]
- activity in restoring Tamoxifen sensitivity compared with NAM ([1]; ER+/NAMPT low (shNAMPT) MCF7 cells, 1 or 5 mM NR, 1 or 5 μM 4-hydroxytamoxifen, 7 days): more potent activity than NAM
- restoration of tamoxifen sensitivity [1, 7]: restore tamoxifen sensitivity
